The subject of one data set is SW620 cells. In words: WST-8 cytotoxicity assay, SW620. Conditions: for IC50: read-out: IC50 SW620, human colon cancer cell, 72 h, mean ± SE (n = 3). The procedure:
(§1) With a range of chromophore analogues in hand, their toxicity to SW620 cells was investigated by WST assays.
(§2) Basically, the evaluation was performed using methods previously reported by our group[20],[23]. Cytotoxic activities of compounds against MIA PaCa-2 (American Type Culture Collection), SW620 (European Collection of Authenticated Cell Cultures) were measured by WST-8 assay according to manufacturer’s protocol. Briefly, cells (1 × 10^4 cells/well) in a 96-well plate were cultured in medium (for MIA PaCa-2, D-MEM (Wako, Japan) containing 10% fetal bovine serum (Funakoshi, Japan), 100 units/mL penicillin G and 100 µg/mL streptomycin (Wako, Japan), for SW620, RPMI-1640 (Wako, Japan) containing 10% fetal bovine serum, 100 units/mL penicillin G and 100 µg/mL streptomycin) were cultured at 37 °C for 24 h under 5% CO2 atmosphere. Then, cells were treated with test compounds (final DMSO concentration was 1%) at 37 °C for 72 h under 5% CO2 atmosphere. Then, cells were treated with a solution of Cell Counting Kit-8® (Dojindo, Japan) for 3 h. After that, cell viabilities were determined based on the measurement of absorption at 450 nm of the wells by using TECAN Infinite® M200 microplate reader. The results were expressed as a percentage of the negative control (cells treated with DMSO only), and that value was fixed at 100%.

The subject of a further data set is MIA PaCa-2 cells. The following applies: read-out: IC50 MIA PaCa-2; human pancreatic carcinoma cell, 72 h, mean ± SE (n = 3). As to the method: as §1, §2

The structures appear in SMILES notation. Several values for one entry are separate records, joined by “and”; a condition that tells them apart may be missing. Equal entries are not always repeated.

Consider `CC(C)[C@H]1C(=O)OC[C@@H](NC(=O)c2ccc3ccccc3n2)C(=O)N[C@@H](C)C(=O)N(C)[C@H]2CSC[C@@H](C(=O)N1C)N(C)C(=O)[C@H](C)NC(=O)[C@H](NC(=O)c1ccc3ccccc3n1)COC(=O)[C@H](C(C)C)N(C)C2=O` [Compound 4], for which, in the data set with SW620 cells, the “cytotoxicity to SW620 cells (in words)” value is reported as “slightly better cytotoxicity than 2” and the IC50 (usually the midpoint of a concentration-inhibition curve) was determined as 0.0205 ± 0.0031 µM. Also, in the data set with MIA PaCa-2 cells, the IC50 was found to be 0.0058 ± 0.0009 µM.
For `CC(C)[C@H]1C(=O)OC[C@@H](NC(=O)c2ccc3ocnc3c2)C(=O)N[C@@H](C)C(=O)N(C)[C@H]2CSC[C@@H](C(=O)N1C)N(C)C(=O)[C@H](C)NC(=O)[C@H](NC(=O)c1ccc3ocnc3c1)COC(=O)[C@H](C(C)C)N(C)C2=O` [Compound 15, {N-(Benzoxazole-5-carbonyl)-D-Ser-L-Ala-N-Boc-N-Me-L-Cys-N-Me-L-Val}2 sulfide], the IC50 in the data set on SW620 cells and in the data set on MIA PaCa-2 cells was more than 10 µM each time.
As to `CC(C)[C@H]1C(=O)OC[C@@H](NC(=O)c2cc3ccccc3[nH]2)C(=O)N[C@@H](C)C(=O)N(C)[C@H]2CSC[C@@H](C(=O)N1C)N(C)C(=O)[C@H](C)NC(=O)[C@H](NC(=O)c1cc3ccccc3[nH]1)COC(=O)[C@H](C(C)C)N(C)C2=O` [Compound 8, {N-(Indol-2-carbonyl)-D-Ser-L-Ala-N-Boc-N-Me-L-Cys-N-Me-L-Val}2 sulfide], the IC50 in the data set on SW620 cells and in the data set on MIA PaCa-2 cells was more than 10 µM throughout.
For the compound `CC(C)[C@H]1C(=O)OC[C@@H](NC(=O)c2ccc3ccccc3c2)C(=O)N[C@@H](C)C(=O)N(C)[C@H]2CSC[C@@H](C(=O)N1C)N(C)C(=O)[C@H](C)NC(=O)[C@H](NC(=O)c1ccc3ccccc3c1)COC(=O)[C@H](C(C)C)N(C)C2=O` [Compound 7, {N-(Naphthalene-2-carbonyl)-D-Ser-L-Ala-N-Boc-N-Me-L-Cys-N-Me-L-Val}2 sulfide], in the data set on SW620 cells, the “cytotoxicity to SW620 cells (in words)” value is recorded as “completely diminished activity” and the IC50 was more than 10 µM. The IC50 in the data set on MIA PaCa-2 cells was more than 10 µM.
`CC(C)[C@H]1C(=O)OC[C@@H](NC(=O)c2cccc3cc[nH]c23)C(=O)N[C@@H](C)C(=O)N(C)[C@H]2CSC[C@@H](C(=O)N1C)N(C)C(=O)[C@H](C)NC(=O)[C@H](NC(=O)c1cccc3cc[nH]c13)COC(=O)[C@H](C(C)C)N(C)C2=O` [Compound 12, {N-(Indol-7-carbonyl)-D-Ser-L-Ala-N-Boc-N-Me-L-Cys-N-Me-L-Val}2 sulfide]: the concentration for half-maximal inhibition (IC50) in the data set with SW620 cells and in the data set on MIA PaCa-2 cells was more than 10 µM throughout.
Take `CC(C)[C@H]1C(=O)OC[C@@H](NC(=O)c2ccc3ncoc3c2)C(=O)N[C@@H](C)C(=O)N(C)[C@H]2CSC[C@@H](C(=O)N1C)N(C)C(=O)[C@H](C)NC(=O)[C@H](NC(=O)c1ccc3ncoc3c1)COC(=O)[C@H](C(C)C)N(C)C2=O` [Compound 16, {N-(Benzoxazole-6-carbonyl)-D-Ser-L-Ala-N-Boc-N-Me-L-Cys-N-Me-L-Val}2 sulfide]: the IC50 in the data set with SW620 cells and in the data set with MIA PaCa-2 cells was more than 10 µM throughout.
With `CC(C)[C@H]1C(=O)OC[C@@H](NC(=O)c2cnccn2)C(=O)N[C@@H](C)C(=O)N(C)[C@H]2CSC[C@@H](C(=O)N1C)N(C)C(=O)[C@H](C)NC(=O)[C@H](NC(=O)c1cnccn1)COC(=O)[C@H](C(C)C)N(C)C2=O` [Compound 20, {N-(Pyradine-2carbonyl)-D-Ser-L-Ala-N-Boc-N-Me-L-Cys-N-Me-L-Val}2 sulfide], the “cytotoxicity to SW620 cells (in words)” value in the data set on SW620 cells is reported as “lost their cytotoxicity”.
As to `CC(C)[C@H]1C(=O)OC[C@@H](NC(=O)c2c[nH]c3ccccc23)C(=O)N[C@@H](C)C(=O)N(C)[C@H]2CSC[C@@H](C(=O)N1C)N(C)C(=O)[C@H](C)NC(=O)[C@H](NC(=O)c1c[nH]c3ccccc13)COC(=O)[C@H](C(C)C)N(C)C2=O` [Compound 9, {N-(Indol-3-carbonyl)-D-Ser-L-Ala-N-Boc-N-Me-L-Cys-N-Me-L-Val}2 sulfide], the IC50 in the data set with SW620 cells and in the data set on MIA PaCa-2 cells was more than 10 µM in each case.
In the case of `CC(C)[C@H]1C(=O)OC[C@@H](NC(=O)c2ccc3ncccc3c2)C(=O)N[C@@H](C)C(=O)N(C)[C@H]2CSC[C@@H](C(=O)N1C)N(C)C(=O)[C@H](C)NC(=O)[C@H](NC(=O)c1ccc3ncccc3c1)COC(=O)[C@H](C(C)C)N(C)C2=O` [Compound 6, {N-(Quinoline-6-carbonyl)-D-Ser-L-Ala-N-Boc-N-Me-L-Cys-N-Me-L-Val}2 sulfide], the figures for the IC50 in the data set with SW620 cells and in the data set on MIA PaCa-2 cells were 1.19 ± 0.187 µM and 0.327 ± 0.066 µM, respectively.
Turning to `CC(C)[C@H]1C(=O)OC[C@@H](NC(=O)c2ccc3c(c2)C(=O)c2ccccc2C3=O)C(=O)N[C@@H](C)C(=O)N(C)[C@H]2CSC[C@@H](C(=O)N1C)N(C)C(=O)[C@H](C)NC(=O)[C@H](NC(=O)c1ccc3c(c1)C(=O)c1ccccc1C3=O)COC(=O)[C@H](C(C)C)N(C)C2=O` [Compound 19, {N-(Anthraquinone-2carbonyl)-D-Ser-L-Ala-N-Boc-N-Me-L-Cys-N-Me-L-Val}2 sulfide], the “cytotoxicity to SW620 cells (in words)” value in the data set on SW620 cells is listed as “lost their cytotoxicity”. Besides, the IC50 in the data set on SW620 cells and in the data set on MIA PaCa-2 cells was more than 10 µM throughout.
As for `CC(C)[C@H]1C(=O)OC[C@@H](NC(=O)c2cc3ccccc3s2)C(=O)N[C@@H](C)C(=O)N(C)[C@H]2CSC[C@@H](C(=O)N1C)N(C)C(=O)[C@H](C)NC(=O)[C@H](NC(=O)c1cc3ccccc3s1)COC(=O)[C@H](C(C)C)N(C)C2=O` [Compound 14, {N-(Benzothiophene-2-carbonyl)-D-Ser-L-Ala-N-Boc-N-Me-L-Cys-N-Me-L-Val}2 sulfide], the IC50 in the data set on SW620 cells and with MIA PaCa-2 cells was more than 10 µM each time.
For `CC(C)[C@H]1C(=O)OC[C@@H](NC(=O)c2ccc(C(=O)c3ccccc3)cc2)C(=O)N[C@@H](C)C(=O)N(C)[C@H]2CSC[C@@H](C(=O)N1C)N(C)C(=O)[C@H](C)NC(=O)[C@H](NC(=O)c1ccc(C(=O)c3ccccc3)cc1)COC(=O)[C@H](C(C)C)N(C)C2=O` [Compound 18, {N-(4-Benzoylphenylcarbonyl)-D-Ser-L-Ala-N-Boc-N-Me-L-Cys-N-Me-L-Val}2 sulfide], in the data set on SW620 cells, the “cytotoxicity to SW620 cells (in words)” value is given as “lost their cytotoxicity” and the IC50 was more than 10 µM. For the same compound, in the data set with MIA PaCa-2 cells, the IC50 was more than 10 µM.
Consider `CC(C)[C@H]1C(=O)OC[C@@H](NC(=O)c2cnc3ccccc3c2)C(=O)N[C@@H](C)C(=O)N(C)[C@H]2CSC[C@@H](C(=O)N1C)N(C)C(=O)[C@H](C)NC(=O)[C@H](NC(=O)c1cnc3ccccc3c1)COC(=O)[C@H](C(C)C)N(C)C2=O` [Compound 5, {N-(Quinoline-3-carbonyl)-D-Ser-L-Ala-N-Boc-N-Me-L-Cys-N-Me-L-Val}2 sulfide], for which the IC50 with SW620 cells was found to be 1.21 ± 0.035 µM; in the data set on MIA PaCa-2 cells it was 0.399 ± 0.076 µM.
The like results for `CC(C)[C@H]1C(=O)OC[C@@H](NC(=O)c2ccc3cc[nH]c3c2)C(=O)N[C@@H](C)C(=O)N(C)[C@H]2CSC[C@@H](C(=O)N1C)N(C)C(=O)[C@H](C)NC(=O)[C@H](NC(=O)c1ccc3cc[nH]c3c1)COC(=O)[C@H](C(C)C)N(C)C2=O` [Compound 11, {N-(Indol-6-carbonyl)-D-Ser-L-Ala-N-Boc-N-Me-L-Cys-N-Me-L-Val}2 sulfide] were, in that order, more than 10 µM and more than 10 µM.
Turning to `CC(C)[C@H]1C(=O)OC[C@@H](NC(=O)c2cnc3ccccc3n2)C(=O)N[C@@H](C)C(=O)N(C)[C@H]2CSC[C@@H](C(=O)N1C)N(C)C(=O)[C@H](C)NC(=O)[C@H](NC(=O)c1cnc3ccccc3n1)COC(=O)[C@H](C(C)C)N(C)C2=O` [Compound 2], the IC50 in the data set with SW620 cells is 0.026 µM and 0.0256 µM; in the data set with MIA PaCa-2 cells, 0.0081 ± 0.001 µM.
As to `CC(C)[C@H]1C(=O)OC[C@@H](NC(=O)c2ccc3[nH]ccc3c2)C(=O)N[C@@H](C)C(=O)N(C)[C@H]2CSC[C@@H](C(=O)N1C)N(C)C(=O)[C@H](C)NC(=O)[C@H](NC(=O)c1ccc3[nH]ccc3c1)COC(=O)[C@H](C(C)C)N(C)C2=O` [Compound 10, {N-(Indol-5-carbonyl)-D-Ser-L-Ala-N-Boc-N-Me-L-Cys-N-Me-L-Val}2 sulfide], the IC50 in the data set with SW620 cells and in the data set with MIA PaCa-2 cells was more than 10 µM in each case.
For the compound `CC(C)[C@H]1C(=O)OC[C@@H](NC(=O)c2ccc3ncsc3c2)C(=O)N[C@@H](C)C(=O)N(C)[C@H]2CSC[C@@H](C(=O)N1C)N(C)C(=O)[C@H](C)NC(=O)[C@H](NC(=O)c1ccc3ncsc3c1)COC(=O)[C@H](C(C)C)N(C)C2=O` [Compound 17], the IC50 in the data set on SW620 cells and with MIA PaCa-2 cells was more than 10 µM throughout.
As for `CC(C)[C@H]1C(=O)OC[C@@H](NC(=O)c2cc3ccccc3o2)C(=O)N[C@@H](C)C(=O)N(C)[C@H]2CSC[C@@H](C(=O)N1C)N(C)C(=O)[C@H](C)NC(=O)[C@H](NC(=O)c1cc3ccccc3o1)COC(=O)[C@H](C(C)C)N(C)C2=O` [Compound 13, {N-(Benzofurane-2-carbonyl)-D-Ser-L-Ala-N-Boc-N-Me-L-Cys-N-Me-L-Val}2 sulfide], the 50% inhibitory concentration (IC50) with SW620 cells and in the data set on MIA PaCa-2 cells was more than 10 µM throughout.

The values are drawn from article PMC10985088, “Synthesis and biological evaluation of echinomycin analogues as potential colon cancer agent” (Scientific Reports, 2024).
